In PubChem BioAssay AID298 (DTP/NCI, 2004):
Where “and” joins values, the source holds several entries; their conditions need not be identical. Identical values can stand only once. Records with an inconclusive call do not appear.

Test system: MX-1 breast xenograft, intrarenal, nude mice, tumor weight
Experiment: NCI In Vivo Anticancer Drug Screen. Data for tumor model Human Mammary Carcinoma MX-1 Xenograft (intrarenal inoculation) in NU/NU BALB/C (nude) mice
Conditions: endpoint: mean tumor weight change, higher = larger tumour
Method in brief: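 Antitumor activity is expressed as a T/C ratio. The treated group's tumor size or survival is compared against the vehicle-treated control group in mice bearing transplanted tumors.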

[1] = dose: 150.0 mg/kg/injection, schedule: Q04DX003 (sc), vehicle: saline with Tween-80
[2] = dose: 300.0 mg/kg/injection, schedule: Q04DX003 (sc), vehicle: saline with Tween-80
[3] = dose: 600.0 mg/kg/injection, schedule: Q04DX003 (sc), vehicle: saline with Tween-80
[4] = dose: 1200.0 mg/kg/injection, schedule: Q04DX003 (sc), vehicle: saline with Tween-80
[5] = dose: 100.0 mg/kg/injection, schedule: Q04DX003 (ip), vehicle: saline with Tween-80
[6] = dose: 200.0 mg/kg/injection, schedule: Q04DX003 (ip), vehicle: saline with Tween-80

## ClCC[N+]12CC[N+](CCCl)(CC1)C2
dose: 75.0 mg/kg/injection, schedule: Q04DX003 (sc), vehicle: water
  T/C: 34 % of control
dose: 100.0 mg/kg/injection, schedule: Q01DX010 (sc), vehicle: saline with Tween-80
  T/C: 23 % of control and 27 % of control
dose: 150.0 mg/kg/injection, schedule: Q04DX003 (sc), vehicle: water
  T/C: 18 % of control
dose: 200.0 mg/kg/injection, schedule: Q01DX010 (sc), vehicle: saline with Tween-80
  T/C: 16 % of control and 19 % of control
dose: 300.0 mg/kg/injection, schedule: Q04DX003 (sc), vehicle: water
  T/C: 3 % of control

## C=C(C)C1C2CC3(C)C4(CO4)C4OC4C3(O)C1C(=O)O2 (stereo not drawn)
dose: 0.15 mg/kg/injection, schedule: Q04DX003 (ip), vehicle: Klucel (hydroxypropylcellulose) (HPC)
  T/C: 116 % of control
dose: 0.31 mg/kg/injection, schedule: Q04DX003 (ip), vehicle: Klucel (hydroxypropylcellulose) (HPC)
  T/C: 86 % of control
dose: 0.62 mg/kg/injection, schedule: Q04DX003 (ip), vehicle: Klucel (hydroxypropylcellulose) (HPC)
  T/C: 106 % of control

## O=C1c2c(O)cccc2-c2nn(CCNCCO)c3ccc(NCCNCCO)c1c23
dose: 2.75 mg/kg/injection, schedule: Q04DX003 (ip), vehicle: water
  T/C: 3 % of control
dose: 5.5 mg/kg/injection, schedule: Q04DX003 (ip), vehicle: water
  T/C: -100 % of control
dose: 11.0 mg/kg/injection, schedule: Q04DX003 (ip), vehicle: water
  T/C: -19 % of control

## Cn1nnc2c(C(N)=O)ncn2c1=O
dose: 75.0 mg/kg/injection, schedule: Q04DX003 (ip), vehicle: suspension in saline
  T/C: 68 % of control
dose: 150.0 mg/kg/injection, schedule: Q04DX003 (ip), vehicle: saline
  T/C: 24 % of control
dose: 150.0 mg/kg/injection, schedule: Q04DX003 (ip), vehicle: suspension in saline
  T/C: 15 % of control
dose: 300.0 mg/kg/injection, schedule: Q04DX003 (ip), vehicle: saline
  T/C: -68 % of control
dose: 300.0 mg/kg/injection, schedule: Q04DX003 (ip), vehicle: suspension in saline
  T/C: -100 % of control

## O=NNc1cccnc1
dose: 25.0 mg/kg/injection, schedule: Q04DX003 (ip), vehicle: water
  T/C: 103 % of control and 113 % of control
dose: 50.0 mg/kg/injection, schedule: Q04DX003 (ip), vehicle: water
  T/C: 108 % of control

## N/C(=N\O)c1cn(C2OC(CO)C(O)C2O)c2ncnc(N)c12 (stereo not drawn)
dose: 5.0 mg/kg/injection, schedule: Q04DX003 (sc), vehicle: Klucel (hydroxypropylcellulose) (HPC)
  T/C: 91 % of control
dose: 10.0 mg/kg/injection, schedule: Q04DX003 (sc), vehicle: Klucel (hydroxypropylcellulose) (HPC)
  T/C: 70 % of control

## COC1(OC)C2C=CC1CC2
[1]
  T/C: 116 % of control
[2]
  T/C: 104 % of control
[3]
  T/C: 121 % of control
[4]
  T/C: 111 % of control

## COc1cc(C(CC(C)=O)c2cc3c(cc2OC(C)=O)OCO3)cc(OC)c1OC (stereo not drawn) (tested in a mixture with another compound)
dose: 50.0 mg/kg/injection, schedule: Q04DX003 (ip), vehicle: saline with Tween-80
  T/C: 59 % of control
dose: 72.0 mg/kg/injection, schedule: Q04DX003 (ip), vehicle: saline with Tween-80
  T/C: 103 % of control
[5]
  T/C: 34 % of control
dose: 120.0 mg/kg/injection, schedule: Q04DX003 (ip), vehicle: saline with Tween-80
  T/C: 110 % of control
[6]
  T/C: 19 % of control and 20 % of control

## Cc1nc2c(N)cc(Cl)cc2[nH]1
[5]
  T/C: 95 % of control
[6]
  T/C: 45 % of control

## CC1[C@@H]2CC=C3[C@H]4CCC5Cc6nc7c(nc6C[C@@]5(C)C4CC(=O)[C@]32CO[C@]12OC(C)(C)CC2O)CC1CC[C@@H]2C3=C[C@H]4O[C@@]5(O[C@@](C)(CO)C[C@@H]5O)C(C)[C@@]4(O)[C@]3(C)[C@@H](O)CC2[C@]1(C)C7 (stereo partly drawn)
dose: 12.5 micrograms/kg/injection, schedule: Q04DX003 (ip), vehicle: saline + alcohol
  T/C: 123 % of control
dose: 25.0 micrograms/kg/injection, schedule: Q04DX003 (ip), vehicle: saline + alcohol
  T/C: 78 % of control
dose: 50.0 micrograms/kg/injection, schedule: Q04DX003 (ip), vehicle: saline + alcohol
  T/C: 118 % of control
dose: 100.0 micrograms/kg/injection, schedule: Q04DX003 (ip), vehicle: saline + alcohol
  T/C: 100 % of control

## Oc1ccc(/C=N/Nc2nnc(N/N=C/c3ccc(O)cc3O)c3ccccc23)c(O)c1
dose: 25.0 mg/kg/injection, schedule: Q04DX003 (ip), vehicle: suspension in saline
  T/C: 50 % of control
dose: 50.0 mg/kg/injection, schedule: Q04DX003 (ip), vehicle: suspension in saline
  T/C: 102 % of control
dose: 100.0 mg/kg/injection, schedule: Q04DX003 (ip), vehicle: suspension in saline
  T/C: 115 % of control

## CN(Cc1cnc2nc(N)nc(N)c2n1)c1c(Cl)cc(C(=O)NC(CCC(=O)O)C(=O)O)cc1Cl (stereo not drawn)
dose: 12.5 mg/kg/injection, schedule: Q01DX010 (sc), vehicle: Klucel (hydroxypropylcellulose) (HPC)
  T/C: 64 % of control
dose: 25.0 mg/kg/injection, schedule: Q01DX010 (sc), vehicle: Klucel (hydroxypropylcellulose) (HPC)
  T/C: 25 % of control
dose: 50.0 mg/kg/injection, schedule: Q01DX010 (sc), vehicle: Klucel (hydroxypropylcellulose) (HPC)
  T/C: -67 % of control

## CCCC1CCC(=C2C(=O)CCC2=O)O1 (stereo not drawn)
dose: 150.0 mg/kg/injection, schedule: Q04DX003 (ip), vehicle: saline with Tween-80
  T/C: 68 % of control

## O=C1N[C@@H]([C@H]2CC[C@H](Cl)CN2)C(=O)N[C@H]1[C@H]1CC[C@H](Cl)CN1
dose: 0.31 mg/kg/injection, schedule: Q01DX010 (sc), vehicle: water
  T/C: 62 % of control
dose: 0.63 mg/kg/injection, schedule: Q01DX010 (sc), vehicle: water
  T/C: 14 % of control
dose: 1.25 mg/kg/injection, schedule: Q01DX010 (sc), vehicle: water
  T/C: 1 % of control
dose: 2.5 mg/kg/injection, schedule: Q01DX010 (sc), vehicle: water
  T/C: -54 % of control
dose: 5.0 mg/kg/injection, schedule: Q01DX010 (sc), vehicle: water
  T/C: -87 % of control

## CC(/C=C/C1OC(=O)C=CC1C)=C\C(C)C/C=C/C(C)=C/C(C)C(=O)C(C)C(O)C(C)C/C(C)=C/C(=O)O (stereo not drawn)
dose: 50.0 micrograms/kg/injection, schedule: Q04DX003 (ip), vehicle: alcohol
  T/C: 104 % of control
dose: 100.0 micrograms/kg/injection, schedule: Q04DX003 (ip), vehicle: alcohol
  T/C: 87 % of control
dose: 200.0 micrograms/kg/injection, schedule: Q04DX003 (ip), vehicle: alcohol
  T/C: 81 % of control
dose: 400.0 micrograms/kg/injection, schedule: Q04DX003 (ip), vehicle: alcohol
  T/C: 111 % of control

## O=[N+]([O-])c1ccc(Sc2ccncn2)c([N+](=O)[O-])c1
[1]
  T/C: 158 % of control
[2]
  T/C: 153 % of control
[3]
  T/C: 86 % of control
[4]
  T/C: 115 % of control

## COc1oc(C2C/C(=C/C(C)=C/C(C)=C/C(C)=C/c3ccc([N+](=O)[O-])cc3)CO2)c(C)c(=O)c1C (stereo not drawn)
dose: 1.0 mg/kg/injection, schedule: Q04DX003 (ip), vehicle: saline
  T/C: 106 % of control
dose: 2.0 mg/kg/injection, schedule: Q04DX003 (ip), vehicle: saline
  T/C: 48 % of control

## CCCCNc1ccc2nnc(C)n2n1
dose: 150.0 mg/kg/injection, schedule: Q04DX003 (ip), vehicle: DMSO
  T/C: 94 % of control and 108 % of control
dose: 300.0 mg/kg/injection, schedule: Q04DX003 (ip), vehicle: DMSO
  T/C: 78 % of control and 88 % of control

## CC(C)CCC(=O)c1ccoc1
dose: 0.75 mg/kg/injection, schedule: Q01DX010 (ip), vehicle: saline with Tween-80
  T/C: 101 % of control
dose: 1.5 mg/kg/injection, schedule: Q01DX010 (ip), vehicle: saline with Tween-80
  T/C: 103 % of control
dose: 3.0 mg/kg/injection, schedule: Q01DX010 (ip), vehicle: saline with Tween-80
  T/C: 84 % of control

## CCCCCCCC1C(=O)OC2CC3C(C)=CC(=O)C(O)C3(C)C3C4(O)OCC23C1C(C)C4O (stereo not drawn)
dose: 10.0 mg/kg/injection, schedule: Q04DX003 (ip), vehicle: Klucel (hydroxypropylcellulose) (HPC)
  T/C: 89 % of control
dose: 20.0 mg/kg/injection, schedule: Q04DX003 (ip), vehicle: Klucel (hydroxypropylcellulose) (HPC)
  T/C: 107 % of control
dose: 40.0 mg/kg/injection, schedule: Q04DX003 (ip), vehicle: Klucel (hydroxypropylcellulose) (HPC)
  T/C: 53 % of control

## O=NN(CCCl)C(=O)NCCCl
dose: 12.0 mg/kg/injection, schedule: Q04DX003 (ip), vehicle: saline + alcohol
  T/C: 60 % of control and 74 % of control
dose: 15.0 mg/kg/injection, schedule: Q04DX003 (sc), vehicle: Klucel (hydroxypropylcellulose) (HPC)
  T/C: 30 % of control
dose: 18.0 mg/kg/injection, schedule: Q04DX003 (ip), vehicle: saline + alcohol
  T/C: 27 % of control and 49 % of control
dose: 30.0 mg/kg/injection, schedule: Q04DX003 (sc), vehicle: Klucel (hydroxypropylcellulose) (HPC)
  T/C: 1 % of control

## O=CNCO
dose: 300.0 mg/kg/injection, schedule: Q01DX010 (sc), vehicle: water
  T/C: 68 % of control
dose: 600.0 mg/kg/injection, schedule: Q01DX010 (sc), vehicle: water
  T/C: 39 % of control
dose: 1200.0 mg/kg/injection, schedule: Q01DX010 (sc), vehicle: water
  T/C: 11 % of control
dose: 2000.0 mg/kg/injection, schedule: Q01DX010 (sc), vehicle: water
  T/C: 8 % of control
